From patent US6995190B2 (Veterinary Solutions, priority 2001, dated 2006)

Assays:
platelet cyclo-oxygenase = conditions: horse, cited from earlier work
[1] = system: PRRS (Porcine Respiratory and Reproductive Syndrome) Virus; test: PRRS virus outbreak in swine nursery, Ketoprofen orally; format: in vivo; conditions: orally for 7 days, along with the same other therapy as controls
Description: A swine client with a 10,000 head nursery was experiencing severe mortality due to a PRRS (Porcine Respiratory and Reproductive Syndrome) Virus outbreak. They had used antibiotics with only partial success and were seeing mortalities as high as 30 percent in the group. […] We also saw less chronic pigs in the treatment group 3% versus 15% in the controls.

swine influenza = format: in vivo, finishing hogs
[2] = system: horse with chronic laminitis; test: Horse with chronic laminitis, Ketoprofen in the water, acceptance and intake; format: in vivo; conditions: 1 mg per pound in the water for 2 weeks
[3] = 1 mg/pound for 3 days orally through the drinking water

SMILES	reductions in exudates eicosanoid concentrations (platelet cyclo-oxygenase; carrageenin tissue-cage exudate)	duration of inhibition of platelet cyclo-oxygenase (platelet cyclo-oxygenase; oral) [h]	chronic pigs [1] [%]	mortality [1] [%]	morbidity at the time of the outbreak (swine influenza; [3]) [%]	mortality (swine influenza; [3]) [%]	average time to market, less than the control group (swine influenza; 1 mg/pound for 3 days orally through the drinking water, 150 pound finishing hogs marketed at 260 pounds) [days]	follow-up mass medication with antibiotics (swine influenza; two weeks after the outbreak)	pain compared with previous treatment (phenylbutazone) [2]
CN=C1CCN(c2cccc(C(F)(F)F)c2)N1 [BW540C]	less pronounced	24	–	–	–	–	–	–	–
CC(C(=O)O)c1cccc(C(=O)c2ccccc2)c1 (stereo not drawn) [Ketoprofen]	–	–	3	7	10	2.1	9	did not require any mass medication with antibiotics	less painful
